Measured values from the NIST ThermoML archive (doi:10.1021/acs.jced.9b00021).

Test: wn = mass fraction of the nth substance listed
Conditions: 400 kPa, Liquid, Concentric cylinders viscometry

CN(CCO)CCO [N-methyldiethanolamine] + O
viscosity [mPa·s]
Conditions	w1 = 0.3	w1 = 0.4	w1 = 0.5	w1 = 0.6	w1 = 0.7	w1 = 0.8	w1 = 0.9	w1 = 0.95	w1 = 1
298.15 K	3.02	5.21	9.13	16.91	30.09	53.42	75.12	76.07	73.1
303.15 K	2.64	4.41	7.51	13.4	23.11	40.03	56.05	57.55	55.89
308.15 K	2.28	3.71	6.17	10.73	18.01	30.42	42.37	44.18	43.45
313.15 K	1.97	3.15	5.13	8.68	14.22	23.47	32.56	34.3	34.15
318.15 K	1.75	2.73	4.34	7.15	11.42	18.44	25.45	27.04	27.15
323.15 K	1.54	2.36	3.68	5.92	9.26	14.67	20.13	21.55	21.82
328.15 K	1.38	2.07	3.18	4.99	7.64	11.84	16.18	17.38	17.79
333.15 K	1.24	1.83	2.76	4.23	6.36	9.67	13.16	14.14	14.63
338.15 K	1.15	1.65	2.43	3.66	5.38	8.02	10.81	11.64	12.2
343.15 K	1.06	1.49	2.16	3.18	4.59	6.71	8.98	9.66	10.21
348.15 K	0.97	1.35	1.92	2.77	3.94	5.66	7.52	8.09	8.6
353.15 K	0.89	1.22	1.72	2.43	3.41	4.81	6.35	6.82	7.31
358.15 K	0.84	1.13	1.58	2.18	3	4.16	5.44	5.83	6.29
363.15 K	0.81	1.05	1.45	1.97	2.65	3.63	4.69	5.01	5.43
368.15 K	0.79	0.97	1.33	1.77	2.37	3.18	4.09	4.33	4.72
373.15 K	0.76	0.91	1.23	1.61	2.12	2.82	3.58	3.77	4.12
